Source: patent US9809574B2, “Isoindoline or isoquinoline compounds, a process for their preparation and pharmaceutical compositions containing them” (LES LABORATOIRES SERVIER, priority 2013, dated 2017)
Where a name gives a salt, the structure may show the parent alone.

Assays:
Bcl-2 protein = Bcl-2 protein (histag-Bcl-2, UniProtKB P10415) (Homo sapiens (Human), UniProt P10415); experiment: Inhibition of Bcl-2 by the fluorescence polarisation technique; format: binding; settings: fluorescence polarisation test; incubation for 2 hours; read-out: IC50 (nM) Bcl-2 FP
Bcl-2 protein, sequence (P10415 whole entry): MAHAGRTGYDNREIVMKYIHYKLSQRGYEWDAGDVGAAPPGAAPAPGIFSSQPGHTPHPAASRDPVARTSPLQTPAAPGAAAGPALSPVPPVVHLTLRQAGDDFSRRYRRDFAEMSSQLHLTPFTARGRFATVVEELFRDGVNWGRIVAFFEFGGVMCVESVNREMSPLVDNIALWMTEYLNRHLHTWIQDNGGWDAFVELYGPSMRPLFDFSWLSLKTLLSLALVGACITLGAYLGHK
Source text: For partial inhibitors, the percentage fluorescence polarisation inhibition for a given concentration of the test compound is indicated.

[1] = tested on: RS4; 11 leukaemia cell line; experiment: In vitro cytotoxicity, Microculture Tetrazolium Assay (MTT); format: cell-based; settings: Homo sapiens, 11 cells exposed for 48 hours
Procedure: The cytotoxicity studies were carried out on the RS4; 11 leukaemia cell line and on H146 small Cell Lung Carcinoma cell line. The cells are distributed onto microplates and exposed to the test compounds for 48 hours. The cell viability is then quantified by a colorimetric assay, the Microculture Tetrazolium Assay (Cancer Res., 1987, 47, 939-942).

SMILES | IC50 (Bcl-2 protein) | IC50 [1]
CN(C(=O)c1cc(-c2cc3c(cc2C(=O)N2Cc4ccccc4C[C@H]2CN2CCOCC2)CN(S(=O)(=O)CCc2ccccc2)C3)n2c1CCCC2)c1ccc(O)cc1 [Example 21, N-(4-Hydroxyphenyl)-N-methyl-3-{6-[(3S)-3-(morpholin-4-ylmethyl)-1,2,3,4-tetrahydroisoquinoline-2-carbonyl]-2-(2-phenylethanesulfonyl)-2,3-dihydro-1H-isoindol-5-yl}-5,6,7,8-tetrahydroindolizine-1-carboxamide hydrochloride] | 14 nM | 112 nM
C[C@@H]1Cc2ccccc2CN1C(=O)c1cc2c(cc1-c1cc(C(=O)N(C)c3ccc(O)cc3)c3n1CCCC3)CN(C(=O)NC(C)(C)C)C2 [Example 76, N-tert-Butyl-5-{1-[(4-hydroxyphenyl)(methyl)carbamoyl]-5,6,7,8-tetrahydroindolizin-3-yl}-6-[(3R)-3-methyl-1,2,3,4-tetrahydroisoquinoline-2-carbonyl]-2,3-dihydro-1H-isoindole-2-carboxamide] | 24 nM | > 150 nM
CCCN(C(=O)c1cc(-c2cc3c(cc2C(=O)N2Cc4ccccc4C[C@H]2CN2CCOCC2)CN(C(=O)Oc2ccccc2)CC3)n(C)c1C)c1ccc(O)cc1 [Example 186, Phenyl 6-{4-[(4-hydroxyphenyl)(propyl)carbamoyl]-1,5-dimethyl-1H-pyrrol-2-yl}-7-[(3S)-3-(morpholin-4-ylmethyl)-1,2,3,4-tetrahydroisoquinoline-2-carbonyl]-1,2,3,4-tetrahydroisoquinoline-2-carboxylate] | 2.5 nM | 4.5 nM
C[C@@H]1Cc2ccccc2CN1C(=O)c1cc2c(cc1-c1cc(C(=O)N(C)c3ccc(O)cc3)c3n1CCCC3)CN(Cc1ccccn1)C2 [Example 28, N-(4-Hydroxyphenyl)-N-methyl-3-{6-[(3R)-3-methyl-1,2,3,4-tetrahydroisoquinoline-2-carbonyl]-2-(pyridin-2-ylmethyl)-2,3-dihydro-1H-isoindol-5-yl}-5,6,7,8-tetrahydroindolizine-1-carboxamide] | 23 nM | > 150 nM
Cc1c(C(=O)N(C)c2ccccc2)cc(-c2cc3c(cc2C(=O)N2Cc4ccccc4C[C@H]2C)CNCC3)n1C [Example 119, N,1,2-Trimethyl-5-{7-[(3R)-3-methyl-1,2,3,4-tetrahydroisoquinoline-2-carbonyl]-1,2,3,4-tetrahydroisoquinolin-6-yl}-N-phenyl-1H-pyrrole-3-carboxamide hydrochloride] | 622 nM | > 150 nM
C[C@@H]1Cc2ccccc2CN1C(=O)c1cc2c(cc1-c1cc(C(=O)N(C)c3ccc(O)cc3)c3n1CCCC3)CN(C(=O)COc1cccc(Cl)c1)C2 [Example 50, 3-{2-[2-(3-Chlorophenoxy)acetyl]-6-[(3R)-3-methyl-1,2,3,4-tetrahydroisoquinoline-2-carbonyl]-2,3-dihydro-1H-isoindol-5-yl}-N-(4-hydroxyphenyl)-N-methyl-5,6,7,8-tetrahydroindolizine-1-carboxamide] | 18 nM | 26 nM
C[C@@H]1Cc2ccccc2CN1C(=O)c1cc2c(cc1-c1cc(C(=O)N(C)c3ccc(O)cc3)c3n1CCCC3)CCN(C(=O)Cc1ccc(OCCN(C)C)cc1)C2 [Example 154, 3-[2-(2-{4-[2-(Dimethylamino)ethoxy]phenyl}acetyl)-7-[(3R)-3-methyl-1,2,3,4-tetrahydroisoquinoline-2-carbonyl]-1,2,3,4-tetrahydroisoquinolin-6-yl]-N-(4-hydroxyphenyl)-N-methyl-5,6,7,8-tetrahydroindolizine-1-carboxamide] | 3.9 nM | 5.9 nM
CN(C(=O)c1cc(-c2cc3c(cc2C(=O)N2Cc4ccccc4C[C@H]2CN2CCOCC2)CN(C(=O)Oc2ccccc2)C3)n2c1CCCC2)c1ccc(O)cc1 [Example 16, Phenyl 5-{1-[(4-hydroxyphenyl)(methyl)carbamoyl]-5,6,7,8-tetrahydroindolizin-3-yl}-6-[(3S)-3-(morpholin-4-ylmethyl)-1,2,3,4-tetrahydroisoquinoline-2-carbonyl]-2,3-dihydro-1H-isoindole-2-carboxylate hydrochloride] | 6 nM | 27 nM
C[C@@H]1Cc2ccccc2CN1C(=O)c1cc2c(cc1-c1cc(C(=O)N(C)c3ccc(O)cc3)c3n1CCCC3)CN(C(=O)N1CC(c3ccccc3)C1)C2 [Example 83, N-(4-Hydroxyphenyl)-N-methyl-3-{6-[(3R)-3-methyl-1,2,3,4-tetrahydroisoquinoline-2-carbonyl]-2-(3-phenylazetidine-1-carbonyl)-2,3-dihydro-1H-isoindol-5-yl}-5,6,7,8-tetrahydroindolizine-1-carboxamide] | 15 nM | 122 nM
CN(C(=O)c1cc(-c2cc3c(cc2C(=O)N2Cc4ccccc4C[C@H]2CN2CCOCC2)CN(C(=O)Oc2ccc(-n4ccnc4)cc2)CC3)n2c1CCCC2)c1ccc(O)cc1 [Example 143, 4-(1H-imidazol-1-yl)phenyl 6-{1-[(4-hydroxyphenyl)(methyl)carbamoyl]-5,6,7,8-tetrahydroindolizin-3-yl}-7-[(3S)-3-(morpholin-4-ylmethyl)-1,2,3,4-tetrahydroisoquinoline-2-carbonyl]-1,2,3,4-tetrahydroisoquinoline-2-carboxylate] | 5.5 nM | 9.3 nM
Cc1c(C(=O)N(C)c2ccc(O)cc2)cc(-c2cc3c(cc2C(=O)N2Cc4ccccc4C[C@H]2CN2CCOCC2)CN(C(=O)NC2CCCCC2)CC3)n1C [Example 793, N-Cyclohexyl-6-{4-[(4-hydroxyphenyl)(methyl)carbamoyl]-1,5-dimethyl-1H-pyrrol-2-yl}-7-[(3S)-3-(morpholin-4-ylmethyl)-1,2,3,4-tetrahydroisoquinoline-2-carbonyl]-1,2,3,4-tetrahydroisoquinoline-2-carboxamide] | 4.4 nM | 92 nM
C[C@@H]1Cc2ccccc2CN1C(=O)c1cc2c(cc1-c1cc(C(=O)N(C)c3ccc(O)cc3)c3n1CCCC3)CCN(C(=O)Cc1ccc(NCCN(C)C)cc1)C2 [Example 108, 3-{2-[2-(4-{[2-(Dimethylamino)ethyl]amino}phenyl)acetyl]-7-[(3R)-3-methyl-1,2,3,4-tetrahydroisoquinoline-2-carbonyl]-1,2,3,4-tetrahydroisoquinolin-6-yl}-N-(4-hydroxyphenyl)-N-methyl-5,6,7,8-tetrahydroindolizine-1-carboxamide hydrochloride] | 2.7 nM | 15 nM
CCS(=O)(=O)N1Cc2cc(C(=O)N3Cc4ccccc4C[C@H]3CN3CCOCC3)c(-c3cc(C(=O)N(C)c4ccc(O)cc4)c4n3CCCC4)cc2C1 [Example 18, 3-[2-(Ethanesulfonyl)-6-[(3S)-3-(morpholin-4-ylmethyl)-1,2,3,4-tetrahydroisoquinoline-2-carbonyl]-2,3-dihydro-1H-isoindol-5-yl]-N-(4-hydroxyphenyl)-N-methyl-5,6,7,8-tetrahydroindolizine-1-carboxamide hydrochloride] | 38 nM | 1290 nM

Second part, led by results:

IC50 (Bcl-2 protein) | SMILES | IC50 [1]
4.3 nM | C[C@@H]1Cc2ccccc2CN1C(=O)c1cc2c(cc1-c1cc(C(=O)N(c3ccccc3)c3ccc(O)cc3)c3n1CCCC3)CCN(C(=O)Cc1ccccc1)C2 [Example 134, N-(4-hydroxyphenyl)-3-{7-[(3R)-3-methyl-1,2,3,4-tetrahydroisoquinoline-2-carbonyl]-2-(2-phenylacetyl)-1,2,3,4-tetrahydroisoquinolin-6-yl}-N-phenyl-5,6,7,8-tetrahydroindolizine-1-carboxamide] | 2 nM
4.3 nM | Cc1c(C(=O)N(C)c2ccccc2)cc(-c2cc3c(cc2C(=O)N2Cc4ccccc4C[C@H]2C)CN(C(=O)Cc2ccc(C#N)cc2)CC3)n1C [Example 150, 5-{2-[2-(4-Cyanophenyl)acetyl]-7-[(3R)-3-methyl-1,2,3,4-tetrahydroisoquinoline-2-carbonyl]-1,2,3,4-tetrahydroisoquinolin-6-yl}-N,1,2-trimethyl-N-phenyl-1H-pyrrole-3-carboxamide] | 16 nM
5 nM | Cc1c(C(=O)N(C)c2ccc(O)cc2)cc(-c2cc3c(cc2C(=O)N2Cc4ccccc4C[C@H]2C)CN(C(=O)Cc2ccc(F)cc2)C3)n1C [Example 102, 5-{2-[2-(4-Fluorophenyl)acetyl]-6-[(3R)-3-methyl-1,2,3,4-tetrahydroisoquinoline-2-carbonyl]-2,3-dihydro-1H-isoindol-5-yl}-N-(4-hydroxyphenyl)-N,1,2-trimethyl-1H-pyrrole-3-carboxamide] | 75 nM
21 nM | COc1ccc(CCCN2Cc3cc(C(=O)N4Cc5ccccc5C[C@H]4C)c(-c4cc(C(=O)N(C)c5ccc(O)cc5)c(C)n4C)cc3C2)cc1 [Example 116, N-(4-Hydroxyphenyl)-5-{2-[3-(4-methoxyphenyl)propyl]-6-[(3R)-3-methyl-1,2,3,4-tetrahydroisoquinoline-2-carbonyl]-2,3-dihydro-1H-isoindol-5-yl}-N,1,2-trimethyl-1H-pyrrole-3-carboxamide] | 181 nM
15 nM | Cc1c(C(=O)N(C)c2ccc(O)cc2)cc(-c2cc3c(cc2C(=O)N2Cc4ccccc4C[C@H]2C)CN(C(=O)CN2CCCCC2)CC3)n1C [Example 799, N-(4-Hydroxyphenyl)-N,1,2-trimethyl-5-{7-[(3R)-3-methyl-1,2,3,4-tetrahydroisoquinoline-2-carbonyl]-2-[2-(piperidin-1-yl)acetyl]-1,2,3,4-tetrahydroisoquinolin-6-yl}-1H-pyrrole-3-carboxamide] | > 150 nM
4 nM | Cc1c(C(=O)N(C)c2ccc(O)cc2)cc(-c2cc3c(cc2C(=O)N2Cc4ccccc4C[C@H]2C)CN(C(=O)Cc2ccccc2)CC3)n1C [Example 75, N-(4-Hydroxyphenyl)-N,1,2-trimethyl-5-{7-[(3R)-3-methyl-1,2,3,4-tetrahydroisoquinoline-2-carbonyl]-2-(2-phenylacetyl)-1,2,3,4-tetrahydroisoquinolin-6-yl}-1H-pyrrole-3-carboxamide] | 6.2 nM
